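Cultured in 96-well plates, cells were exposed to test compound for 48 hours across five concentrations. TGI denotes the concentration required for complete inhibition of growth.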
How the values were obtained:
Test in all cases: NCI-60 cell line screen, 48 h
MDA-MB-231 breast = system: MDA-MB-231 breast
HL-60(TB) leukemia = system: HL-60(TB) leukemia
SK-MEL-5 melanoma = system: SK-MEL-5 melanoma
OVCAR-8 ovarian = system: OVCAR-8 ovarian
HT29 colon = system: HT29 colon
PC-3 prostate = system: PC-3 prostate
SN12C renal = system: SN12C renal
SW-620 colon = system: SW-620 colon
HOP-92 NSCLC = system: HOP-92 NSCLC
SK-MEL-28 melanoma = system: SK-MEL-28 melanoma
UO-31 renal = system: UO-31 renal
ACHN renal = system: ACHN renal
CCRF-CEM leukemia = system: CCRF-CEM leukemia
HCC-2998 colon = system: HCC-2998 colon
U251 CNS = system: U251 CNS
TK-10 renal = system: TK-10 renal
MCF7 breast = system: MCF7 breast
MDA-N = system: MDA-N
CAKI-1 renal = system: CAKI-1 renal
OVCAR-3 ovarian = system: OVCAR-3 ovarian
SNB-75 CNS = system: SNB-75 CNS
DU-145 prostate = system: DU-145 prostate
HS 578T breast = system: HS 578T breast
NCI-H522 lung = system: NCI-H522 lung
SR leukemia = system: SR leukemia
SF-268 CNS = system: SF-268 CNS
LOX IMVI melanoma = system: LOX IMVI melanoma
SF-539 CNS = system: SF-539 CNS
A549 NSCLC = system: A549 NSCLC
MOLT-4 leukemia = system: MOLT-4 leukemia
MALME-3M melanoma = system: MALME-3M melanoma
RPMI-8226 leukemia = system: RPMI-8226 leukemia
SK-OV-3 ovarian = system: SK-OV-3 ovarian
UACC-257 melanoma = system: UACC-257 melanoma
HOP-62 NSCLC = system: HOP-62 NSCLC
IGROV1 ovarian = system: IGROV1 ovarian
A498 renal = system: A498 renal
EKVX NSCLC = system: EKVX NSCLC
RXF 393 renal = system: RXF 393 renal
786-0 renal = system: 786-0 renal
SK-MEL-2 melanoma = system: SK-MEL-2 melanoma
KM12 colon = system: KM12 colon
COLO 205 colon = system: COLO 205 colon
M14 melanoma = system: M14 melanoma
NCI/ADR-RES ovarian = system: NCI/ADR-RES ovarian
T-47D breast = system: T-47D breast
NCI-H226 lung = system: NCI-H226 lung
OVCAR-4 ovarian = system: OVCAR-4 ovarian
BT-549 breast = system: BT-549 breast
OVCAR-5 ovarian = system: OVCAR-5 ovarian
K-562 leukemia = system: K-562 leukemia
SF-295 CNS = system: SF-295 CNS
SNB-19 CNS = system: SNB-19 CNS
MDA-MB-435 = system: MDA-MB-435
HCT-116 colon = system: HCT-116 colon
UACC-62 melanoma = system: UACC-62 melanoma
NCI-H23 lung = system: NCI-H23 lung
NCI-H460 lung = system: NCI-H460 lung
HCT-15 colon = system: HCT-15 colon

What does the source list for `COC(=O)CC1C(COC(C)=O)OC(n2cc(C)c(=O)[nH]c2=O)C1OC(C)=O` (stereo not drawn)?
TGI (MDA-MB-231 breast): > 100 µM; TGI (HL-60(TB) leukemia): > 100 µM; TGI (SK-MEL-5 melanoma): > 100 µM; TGI (OVCAR-8 ovarian): > 100 µM; TGI (HT29 colon): > 100 µM; TGI (PC-3 prostate): > 100 µM; TGI (SN12C renal): > 100 µM; TGI (SW-620 colon): > 100 µM; TGI (HOP-92 NSCLC): > 100 µM; TGI (SK-MEL-28 melanoma): > 100 µM; TGI (UO-31 renal): > 100 µM; TGI (ACHN renal): > 100 µM; TGI (CCRF-CEM leukemia): > 100 µM; TGI (HCC-2998 colon): > 100 µM; TGI (U251 CNS): > 100 µM; TGI (TK-10 renal): > 100 µM; TGI (MCF7 breast): > 100 µM; TGI (MDA-N): > 100 µM; TGI (CAKI-1 renal): > 100 µM; TGI (OVCAR-3 ovarian): > 100 µM; TGI (SNB-75 CNS): > 100 µM; TGI (DU-145 prostate): > 100 µM; TGI (HS 578T breast): > 100 µM; TGI (NCI-H522 lung): > 100 µM; TGI (SR leukemia): > 100 µM; TGI (SF-268 CNS): > 100 µM; TGI (LOX IMVI melanoma): > 100 µM; TGI (SF-539 CNS): > 100 µM; TGI (A549 NSCLC): > 100 µM; TGI (MOLT-4 leukemia): > 100 µM; TGI (MALME-3M melanoma): > 100 µM; TGI (RPMI-8226 leukemia): > 100 µM; TGI (SK-OV-3 ovarian): > 100 µM; TGI (UACC-257 melanoma): > 100 µM; TGI (HOP-62 NSCLC): > 100 µM; TGI (IGROV1 ovarian): > 100 µM; TGI (A498 renal): > 100 µM; TGI (EKVX NSCLC): > 100 µM; TGI (RXF 393 renal): > 100 µM; TGI (786-0 renal): > 100 µM; TGI (SK-MEL-2 melanoma): > 100 µM; TGI (KM12 colon): > 100 µM; TGI (COLO 205 colon): > 100 µM; TGI (M14 melanoma): > 100 µM; TGI (NCI/ADR-RES ovarian): > 100 µM; TGI (T-47D breast): > 100 µM; TGI (NCI-H226 lung): > 100 µM; TGI (OVCAR-4 ovarian): > 100 µM; TGI (BT-549 breast): > 100 µM; TGI (OVCAR-5 ovarian): > 100 µM; TGI (K-562 leukemia): > 100 µM; TGI (SF-295 CNS): > 100 µM; TGI (SNB-19 CNS): > 100 µM; TGI (MDA-MB-435): > 100 µM; TGI (HCT-116 colon): > 100 µM; TGI (UACC-62 melanoma): > 100 µM; TGI (NCI-H23 lung): > 100 µM; TGI (NCI-H460 lung): > 100 µM; TGI (HCT-15 colon): > 100 µM

For `S=C1Cc2c(-c3ccc(Cl)cc3)cc(-c3ccccc3)nc2-c2ccccc2N1`, which TGI (MDA-MB-231 breast) is on record?
The TGI was 23.8 µM.

And the TGI (HL-60(TB) leukemia)?
Its TGI is over 100 µM.

What about the TGI (SK-MEL-5 melanoma) of the same compound?
Its TGI is over 100 µM.

What about the TGI (OVCAR-8 ovarian) of the same compound?
The TGI was 8.04 µM.

What about the TGI (HT29 colon) of the same compound?
Its TGI is 21.6 µM.

And the TGI (PC-3 prostate)?
Its TGI is 44 µM.

And the TGI (SN12C renal)?
The TGI was 31.3 µM.

What about the TGI (SW-620 colon) of the same compound?
The TGI was over 100 µM.

What about the TGI (HOP-92 NSCLC) of the same compound?
The TGI was 26.7 µM.

What about the TGI (SK-MEL-28 melanoma) of the same compound?
The TGI was over 100 µM.

What about the TGI (UO-31 renal) of the same compound?
The TGI was 35.8 µM.

And the TGI (ACHN renal)?
Its TGI is 27.1 µM.

What about the TGI (CCRF-CEM leukemia) of the same compound?
Its TGI is over 100 µM.

And the TGI (HCC-2998 colon)?
The TGI was over 100 µM.

What about the TGI (U251 CNS) of the same compound?
The TGI was over 100 µM.

What about the TGI (TK-10 renal) of the same compound?
The TGI was 30.2 µM.

What about the TGI (MCF7 breast) of the same compound?
Its TGI is over 100 µM.

What about the TGI (MDA-N) of the same compound?
The TGI was 30.4 µM.

What about the TGI (CAKI-1 renal) of the same compound?
Its TGI is 13.1 µM.

What about the TGI (OVCAR-3 ovarian) of the same compound?
The TGI was 29.8 µM.

What about the TGI (SNB-75 CNS) of the same compound?
Its TGI is 17.4 µM.

What about the TGI (DU-145 prostate) of the same compound?
The TGI was over 100 µM.

What about the TGI (HS 578T breast) of the same compound?
Its TGI is 16.3 µM.

What about the TGI (NCI-H522 lung) of the same compound?
The TGI was 40.2 µM.

And the TGI (SR leukemia)?
Its TGI is over 100 µM.

What about the TGI (SF-268 CNS) of the same compound?
Its TGI is 34.6 µM.

What about the TGI (LOX IMVI melanoma) of the same compound?
Its TGI is 35.2 µM.

And the TGI (SF-539 CNS)?
The TGI was 16.2 µM.

What about the TGI (A549 NSCLC) of the same compound?
Its TGI is 25.5 µM.

What about the TGI (MOLT-4 leukemia) of the same compound?
The TGI was over 100 µM.

And the TGI (MALME-3M melanoma)?
The TGI was 35.9 µM.

And the TGI (RPMI-8226 leukemia)?
Its TGI is over 100 µM.

And the TGI (SK-OV-3 ovarian)?
The TGI was 25.7 µM.

And the TGI (UACC-257 melanoma)?
The TGI was 36.1 µM.

What about the TGI (HOP-62 NSCLC) of the same compound?
Its TGI is 24.1 µM.

What about the TGI (IGROV1 ovarian) of the same compound?
The TGI was 14 µM.

And the TGI (A498 renal)?
Its TGI is 33 µM.

And the TGI (EKVX NSCLC)?
The TGI was 54.9 µM.

What about the TGI (RXF 393 renal) of the same compound?
The TGI was 21.9 µM.

What about the TGI (786-0 renal) of the same compound?
The TGI was 21.8 µM.

What about the TGI (SK-MEL-2 melanoma) of the same compound?
The TGI was 37.6 µM.

What about the TGI (KM12 colon) of the same compound?
The TGI was 50.9 µM.

And the TGI (COLO 205 colon)?
Its TGI is 49.5 µM.

What about the TGI (M14 melanoma) of the same compound?
The TGI was 49 µM.

And the TGI (NCI/ADR-RES ovarian)?
The TGI was 48.6 µM.

And the TGI (T-47D breast)?
Its TGI is over 100 µM.

And the TGI (NCI-H226 lung)?
Its TGI is 55.7 µM.

And the TGI (OVCAR-4 ovarian)?
The TGI was 18 µM.

What about the TGI (BT-549 breast) of the same compound?
Its TGI is 35 µM.

What about the TGI (OVCAR-5 ovarian) of the same compound?
Its TGI is 92.9 µM.

What about the TGI (K-562 leukemia) of the same compound?
Its TGI is over 100 µM.

And the TGI (SF-295 CNS)?
The TGI was 34.1 µM.

And the TGI (SNB-19 CNS)?
Its TGI is 21.5 µM.

What about the TGI (MDA-MB-435) of the same compound?
Its TGI is 46 µM.

And the TGI (HCT-116 colon)?
The TGI was 28.8 µM.

What about the TGI (UACC-62 melanoma) of the same compound?
Its TGI is 41.3 µM.

What about the TGI (NCI-H23 lung) of the same compound?
The TGI was 27.2 µM.

And the TGI (NCI-H460 lung)?
The TGI was 36.2 µM.

What about the TGI (HCT-15 colon) of the same compound?
The TGI was over 100 µM.
